Where a chain is given by its changes, count along the chain named. Numbers in names are those of the source. Where “and” joins values, the source holds several entries; their conditions need not be identical. Identical values can stand only once.
Columns and labels:
[1] = molecular target: T1, P185A mutant 3α-HSD/CR (Comamonas testosteroni, UniProt P80702, P185A); assay: Steady-state kinetics and primary isotope effects, oxidation of androsterone with NAD^+
T1 sequence (P80702 1-257 P185A): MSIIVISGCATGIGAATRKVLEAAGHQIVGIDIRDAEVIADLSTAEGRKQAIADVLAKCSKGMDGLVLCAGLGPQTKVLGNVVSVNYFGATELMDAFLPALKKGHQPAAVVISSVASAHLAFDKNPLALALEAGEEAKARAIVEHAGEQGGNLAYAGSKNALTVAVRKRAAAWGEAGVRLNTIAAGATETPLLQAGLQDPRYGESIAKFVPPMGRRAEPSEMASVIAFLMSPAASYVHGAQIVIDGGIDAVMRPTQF
Description: (§1) All reactions were initiated by the addition of an enzyme.
(§2) The data were fitted to Equation 2.

[2] = molecular target: T2, T188A mutant 3α-HSD/CR (Comamonas testosteroni, UniProt P80702, T188A); assay: biochemical; type: biochemical
T2 construct: His-tag (inferred from pET15b vector and Ni-NTA purification) (N); made in house; host or cells: Escherichia coli BL21(DE3)
Description: as §1, §2

[3] = molecular target: T3, T188S mutant 3α-HSD/CR (Comamonas testosteroni, UniProt P80702, T188S); assay: biochemical; type: biochemical
T3 construct: His-tag (inferred from pET15b vector and Ni-NTA purification) (N); made in house; host or cells: Escherichia coli BL21(DE3)
Description: as §1, §2

[4] = molecular target: T4, wild-type 3α-HSD/CR (Comamonas testosteroni, UniProt P80702); conditions: cited from earlier work
T4 sequence (P80702 1-257): T1 sequence (P80702 1-257 P185A) with A185P

[5] = molecular target: T4, wild-type 3α-HSD/CR; conditions: WT; pH 10.5; obtained from Table 1
Description: as §1, §2

[6] = molecular target: T4, wild-type 3α-HSD/CR
[7] = substrate: NC(=O)c1ccc[n+]([C@@H]2O[C@H](COP(=O)([O-])OP(=O)(O)OC[C@H]3O[C@@H](n4cnc5c(N)ncnc54)[C@H](O)[C@@H]3O)[C@@H](O)[C@H]2O)c1; assay: purified protein, by the assay type; conditions: other: P185A, 0.1 M Caps pH 10.5, 25°C
[8] = P185A, 0.1 M Caps pH 10.5, 25°C
[9] = WT, labeled vs unlabeled androsterone, 1.7 mM NAD^+, pH 10.5

T2 sequence (P80702 whole entry T188A): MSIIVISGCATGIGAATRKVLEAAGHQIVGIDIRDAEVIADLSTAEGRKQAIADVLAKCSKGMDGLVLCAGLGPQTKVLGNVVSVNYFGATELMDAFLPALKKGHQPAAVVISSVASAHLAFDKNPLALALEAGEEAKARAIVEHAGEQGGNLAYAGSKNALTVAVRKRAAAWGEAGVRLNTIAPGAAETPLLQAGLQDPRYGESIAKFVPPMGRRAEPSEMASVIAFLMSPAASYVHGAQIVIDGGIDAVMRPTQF
T3 sequence (P80702 whole entry T188S): as the sequence (P80702 whole entry T188A) above, with A188S counted along it

## NC(=O)c1ccc[n+]([C@@H]2O[C@H](COP(=O)([O-])OP(=O)(O)OC[C@H]3O[C@@H](n4cnc5c(N)ncnc54)[C@H](O)[C@@H]3O)[C@@H](O)[C@H]2O)c1 [NAD^+]
[1]
  Ki: 1 ± 0.3 mM
[1]; P185A vs wild-type, pH 10.5, Equation 4
  ΔΔGbmut/wt (differential ground-state binding energy, enzyme-NAD^+ complex): 1.7 kcal/mol
[1]; [8]
  kcat/Ka (NAD^+): 4.7e+06 ± 1.1e+06 M⁻¹ s⁻¹
[2]
  Ki: 1.4 ± 0.2 mM
[2]; T188A vs wild-type, pH 10.5, Equation 4
  ΔΔGbmut/wt (differential ground-state binding energy, enzyme-NAD^+ complex): 1.8 kcal/mol
[3]
  Ki: 1.6 ± 0.3 mM
[3]; T188S vs wild-type, pH 10.5, Equation 4
  ΔΔGbmut/wt (differential ground-state binding energy, enzyme-NAD^+ complex): 1.9 kcal/mol
[4]; WT, 0.1 M Caps pH 10.5
  Ka (Michaelis constant of NAD^+): 121 ± 26 µM
[4]; read-out: Kia (inhibition constant of NAD^+), WT, 0.1 M Caps pH 10.5
  Ki: 0.06 ± 0.03 mM

## C[C@]12CC[C@@H](O)C[C@@H]1CC[C@@H]1[C@@H]2CC[C@]2(C)C(=O)CC[C@@H]12 [androsterone, Androsterone]
[5]
  kcat/KiaKb (kcat/KiNADKandrosterone): 42 ×10^4 mM^−2s^−1
[1]; P185A vs wild-type, pH 10.5, Equation 5
  ΔΔG^‡ mut/wt (differential transition-state binding energy): 0.96 kcal/mol
[1]; [8]
  kcat: 916 ± 61 s⁻¹
[1]; P185A, pH 10.5
  increase of kcat/Kandrosterone relative to wild-type: 3 fold
[1]; P185A, pH 10.5, obtained from Table 1
  kcat/KiaKb (kcat/KiNADKandrosterone): 8.3×10^4 mM^−2s^−1
[2]; T188A vs wild-type, pH 10.5, Equation 5
  ΔΔG^‡ mut/wt (differential transition-state binding energy): 1.9 kcal/mol
[2]; T188A, 0.1 M Caps pH 10.5, 25°C
  kcat: 1200 ± 133 s⁻¹
[2]; T188A, pH 10.5, obtained from Table 1
  kcat/KiaKb (kcat/KiNADKandrosterone): 1.7×10^4 mM^−2s^−1
[2]; mutation of T188 (T188A), pH 10.5
  increase of Kandrosterone relative to wild-type: 14 fold
[3]; T188S vs wild-type, pH 10.5, Equation 5
  ΔΔG^‡ mut/wt (differential transition-state binding energy): 2.0 kcal/mol
[3]; T188S, 0.1 M Caps pH 10.5, 25°C
  kcat: 1414 ± 149 s⁻¹
[3]; T188S, pH 10.5, obtained from Table 1
  kcat/KiaKb (kcat/KiNADKandrosterone): 1.4×10^4 mM^−2s^−1
[6]; calculated from kobs 309 s^−1 and ^D(Vmax/Kandrosterone) 1.8
  minimum rate constant for hydride transfer from undeuterated androsterone to NAD^+: ≥ 556 s⁻¹
[4]; WT, 0.1 M Caps pH 10.5
  kcat: 100 ± 8 s⁻¹
[4]; [9]
  ^D(V/K b) (primary kinetic isotope effect on Vmax/Kandrosterone): 1.8 and 1.8±0.2
  ^DV (primary kinetic isotope effect on Vmax): 1
[4]; wild-type
  ^D2OVmax (solvent kinetic isotope effect): 2.1

## [2H]C1(O)CCC2(C)C(CCC3C4CCC(=O)C4(C)CCC32)C1 (stereo not drawn) [deuterated androsterone, [3α-^2H]Androsterone]
[6]; 1 µM WT, 1 mM NAD^+, 17.5 µM deuterated androsterone, 0.1 M Caps pH 10.5, 25°C
  apparent rate constant (kobs) for the deuteride transfer: 309 s⁻¹

B1: P185A mutant 3α-HSD/CR (Comamonas testosteroni; P185A) (protein)
chain: T1 sequence (P80702 1-257 P185A)
[7]
  Km: 195 ± 55 µM
